Values after ≈ are worked out from the molar mass of the structure shown. Where a name gives a salt, the structure may show the parent alone. Read-outs that look alike come from different tables or passages of the source.
Experiments:
[1] = Storage stability in sealed vial at 50° C. for 4 weeks, % residue; assay type: physicochemical; details: 40320 min
Procedure: One sample each of the following compounds was stored in a sealed vial at 50° C. for 4 weeks.
The sodium salt, zwitter ion, and monohydrochloride of 7β-[2-(2-imino-4-thiazoline-4-yl)acetamido]-3-[1-[2-(N,N-dimethylamino)ethyl]-1H-tetrazol-5-yl]thiomethyl-3-cephem-4-carboxylic acid, as well as the lyophilized powders of said acid dihydrochloride (amorphous powders, Example 4-(2)), the crystals of said acid dihydrochloride (Example 1-(3)) and the non-crystalline powders obtained by drying said dihydrochloride crystals (Example 1-(4)) as obtained in accordance with this invention.
The percent residue figures are as follows.

[2] = Water solubility (statement); assay type: physicochemical
[3] = West German Patent Application Laid Open No. 2461478; cited from earlier work
[4] = Stability in storage / shelf-life (statement); assay type: physicochemical
[5] = tested on: Bacillus subtilis ATCC 6633; assay: Bioassay by the cylinder method; assay type: cell-based
Procedure: The bioassay by the cylinder method was carried out using 7β-[2-(2-imino-4-thiazolin-4-yl)acetamido]-3-[1-[2-(N,N-dimethylamino)ethyl]-1H-tetrazol-5-yl]thiomethyl-3-cephem-4-carboxylic acid .2H Cl salt as the standard product against Bacillus subtilis ATCC 6633 as the assay microorganism.
The potency of the anhydrous zwitter ion compound was 1000 mcg/ml. The calculated potency of a sample containing 2 moles of HCl per mole of the zwitter ion compound and none of non-bonding hydrochloric acid, water, residual solvent or other impurity is 878 mcg/ml.

[6] = Acute toxicity (mouse, intraperitoneal); details: in vivo, ip, 1:1 (by mole) mixture of compound (I) and sodium carbonate, anhydrate basis, read-out: CD50 (the source's name)
Description: (§1) The antibacterial potency (in terms of MIC) and toxicity of the contemplated compound (I) on anhydrate basis
(2) Acute toxicity (mouse, intraperitoneal)
The acute toxicity data relates to a 1:1 (by mole) mixture of contemplated compound (I) and sodium carbonate.

Escherichia coli T-7 = assay: Antibacterial spectrum (agar dilution), MIC; assay type: cell-based; details: T7, on anhydrate basis, E. coli T-7
Description: as §1
(§2) (1) Antibacterial spectrum (agar dilution)

[7] = tested on: Staphylococcus aureus FDA 209 P; assay: Antibacterial spectrum (agar dilution), MIC; assay type: cell-based; details: FDA209, on anhydrate basis, S. aureus FDA 209 P
Description: as §1, §2

[8] = tested on: Staphylococcus aureus 1840; assay: Antibacterial spectrum (agar dilution), MIC; assay type: cell-based; details: on anhydrate basis, S. aureus 1840
Description: as §1, §2

Escherichia coli O-111 = assay: Antibacterial spectrum (agar dilution), MIC; assay type: cell-based; details: O111, on anhydrate basis, E. coli O-111
Description: as §1, §2

[9] = tested on: Proteus vulgaris IFO 3988; assay: Antibacterial spectrum (agar dilution), MIC; assay type: cell-based; details: IFO3988, on anhydrate basis, P. vulgaris IFO 3988
Description: as §1, §2

[10] = tested on: Proteus morganii IFO 3848; assay: Antibacterial spectrum (agar dilution), MIC; assay type: cell-based; details: Morganella morganii, IFO3848, on anhydrate basis, P. morganii IFO 3848
Description: as §1, §2

[11] = tested on: Escherichia coli NIHJ JC-2; assay: Antibacterial spectrum (agar dilution), MIC; assay type: cell-based; details: NIHJJC2, on anhydrate basis, E. coli NIHJ JC-2
Description: as §1, §2

Klebsiella pneumoniae DT = assay: Antibacterial spectrum (agar dilution), MIC; assay type: cell-based; details: on anhydrate basis, K. pneumoniae DT
Description: as §1, §2

## CN(C)CCn1nnnc1SCC1=C(C(=O)O)N2C(=O)[C@@H](NC(=O)Cc3csc(N)n3)[C@H]2SC1 [Monohydrochloride (lyophilizate), 7β-[2-(2-imino-4-thiazoline-4-yl)acetamido]-3-[1-[2-(N,N-dimethylamino)ethyl]-1H-tetrazol-5-yl]thiomethyl-3-cephem-4-carboxylic acid, reference compound]
[1]
  % Residue: 73%

## CN(C)CCn1nnnc1SCC1=C(C(=O)O)N2C(=O)[C@@H](NC(=O)Cc3csc(N)n3)[C@H]2SC1 [Sodium salt (lyophilizate), 7β-[2-(2-imino-4-thiazoline-4-yl)acetamido]-3-[1-[2-(N,N-dimethylamino)ethyl]-1H-tetrazol-5-yl]thiomethyl-3-cephem-4-carboxylic acid, reference compound]
[1]
  % Residue: 76%

## CN(C)CCn1nnnc1SCC1=C(C(=O)O)N2C(=O)[C@@H](NC(=O)Cc3csc(N)n3)[C@H]2SC1 [Example 4-(2), 7β-[2-(2-imino-4-thiazolin-4-yl)acetamido]-3-[1-[2-(N,N-dimethylamino)ethyl]-1H-tetrazol-5-yl]thiomethyl-3-cephem-4-carboxylic acid]
[1]
  % Residue: 86%

## CN(C)CCn1nnnc1SCC1=C(C(=O)O)N2C(=O)[C@@H](NC(=O)Cc3csc(N)n3)[C@H]2SC1 [compound (II), 7β-[2-(2-imino-4-thiazolin-4-yl)acetamido]-3-[1-[2-(N,N-dimethylamino)ethyl]-1H-tetrazol-5-yl]thiomethyl-3-cephem-4-carboxylic acid, reference compound]
[2]
  water solubility: high water solubility
[3]
  antibiotic activity: excellent antibiotic activity
[4]; free acid form (zwitter ion) or salt with a base
  stability on long shelf-life: unstable in the free acid form (zwitter ion) or its salt with a base
[1]; listed as Zwitter ion(lyophilizate)
  % Residue: 54%
[5]; listed as anhydrous zwitter ion compound
  Bioassay (potency): 1000 µg/mL

## CN(C)CCn1nnnc1SCC1=C(C(=O)O)N2C(=O)[C@@H](NC(=O)Cc3csc(N)n3)[C@H]2SC1 [Example 1-(4), 7β-[2-(2-imino-4-thiazolin-4-yl)acetamido]-3-[1-[2-(N,N-dimethylamino)ethyl]-1H-tetrazol-5-yl]thiomethyl-3-cephem-4-carboxylic acid]
[1]
  % Residue: 98%

## CN(C)CCn1nnnc1SCC1=C(C(=O)O)N2C(=O)[C@@H](NC(=O)Cc3csc(N)n3)[C@H]2SC1 [Example 1-(3), 7β-[2-(2-imino-4-thiazolin-4-yl)acetamido]-3-[1-[2-(N,N-dimethylamino)ethyl]-1H-tetrazol-5-yl]thiomethyl-3-cephem-4-carboxylic acid]
[1]
  % Residue: 99%

## CN(C)CCn1nnnc1SCC1=C(C(=O)O)N2C(=O)[C@@H](NC(=O)Cc3csc(N)n3)[C@H]2SC1 [compound (I)]
[6]
  LD50: ≥ 20000 mg/kg
Escherichia coli T-7
  MIC: 1.56 µg/mL (≈ 2.97 µM)
[7]
  MIC: 0.39 µg/mL (≈ 0.742 µM)
[8]
  MIC: 0.78 µg/mL (≈ 1.48 µM)
Escherichia coli O-111
  MIC: 0.05 µg/mL (≈ 0.0951 µM)
[9]
  MIC: 1.56 µg/mL (≈ 2.97 µM)
[10]
  MIC: 0.39 µg/mL (≈ 0.742 µM)
[11]
  MIC: 0.2 µg/mL (≈ 0.38 µM)
Klebsiella pneumoniae DT
  MIC: 0.1 µg/mL (≈ 0.19 µM)
[4]
  stability in storage: highly stable in storage

## CN(C)CCn1nnnc1SCC1=C(C(=O)O)N2C(=O)[C@@H](NC(=O)Cc3csc(=N)[nH]3)[C@H]2SC1 [Example 7-(3), 5β-[2-(2-imino-4-thiazolin-4-yl)acetamido]-3-[1-[2-(N,N-dimethylamino)ethyl]-1H-tetrazol-5-yl]thiomethyl-3-cephem-4-carboxylic acid]
[5]
  Bioassay (potency): 865 µg/mL

Reference: US4146710A, “Solid cephalosporin salt” (Takeda Chemical Industries, Ltd., priority 1976, dated 1979)
